The text below walks through data of US20170073337A1, “DIHYDROTHIAZINE AND DIHYDROOXAZINE DERIVATIVES HAVING BACE1 INHIBITORY ACTIVITY” (Shionogi & Co., Ltd., priority 2014, published 2017).

Molecules are shown by their SMILES. pIC50: −log10 of the molar value. Converted amounts (≈) assume the structure as drawn. Like-named read-outs stand apart in the source and are kept apart here.

The target of one data set is T1, CYP2C19 (Homo sapiens, UniProt P33261).
T1 construct: The commercially available pooled human liver microsomes are used as an enzyme resource; from tissue; host or cells: pooled human liver microsomes
T1 sequence (P33261 whole entry): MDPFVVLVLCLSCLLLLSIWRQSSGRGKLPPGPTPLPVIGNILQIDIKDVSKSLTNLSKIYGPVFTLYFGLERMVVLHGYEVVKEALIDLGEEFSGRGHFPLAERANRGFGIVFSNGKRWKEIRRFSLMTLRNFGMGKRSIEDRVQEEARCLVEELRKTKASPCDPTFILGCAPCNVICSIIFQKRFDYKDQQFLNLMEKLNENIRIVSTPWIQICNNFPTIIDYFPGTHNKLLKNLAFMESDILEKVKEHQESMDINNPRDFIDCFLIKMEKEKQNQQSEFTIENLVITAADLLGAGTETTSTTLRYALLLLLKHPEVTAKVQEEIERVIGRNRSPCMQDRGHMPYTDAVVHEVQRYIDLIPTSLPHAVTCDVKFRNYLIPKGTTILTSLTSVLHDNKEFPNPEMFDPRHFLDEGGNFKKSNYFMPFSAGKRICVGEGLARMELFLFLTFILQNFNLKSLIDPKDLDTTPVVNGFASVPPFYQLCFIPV
The data set can be described thus: CYP inhibition test (CYP2C19). Type of data set: in vitro ADME. As to conditions: pooled human liver microsomes; mephenytoin 4′-hydroxylation. A digest of the protocol:
(§1)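 Pooled human liver microsomes (0.2 mg protein/mL) were incubated at 37 °C with NADPH, compound at 1, 5, 10, 20 μmol/L and marker substrates: tolbutamide 100 μmol/L (2C9), S-mephenytoin 50 μmol/L (2C19), dextromethorphan 5 μmol/L (2D6), terfenadine 1 μmol/L (3A4). Metabolites were measured by LC/MS/MS; IC50 came from logistic fitting against DMSO control.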

A further data set can be described thus: Solubility test. Type of data set: physicochemical. The procedure, abridged: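 Dissolved concentration determined by LC/MS or SPE/MS (absolute calibration) in diluted filtrates, after 2 μL of 10 mmol/L DMSO stock was added to 198 μL JP 1st or JP 2nd fluid and equilibrated either 1 h with shaking at room temperature or 16 h standing at 25 °C.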
For a further data set, the target named is T2, CYP1A2 (Homo sapiens, UniProt P05177).
T2 construct: The commercially available pooled human liver microsomes are used as an enzyme resource; from tissue; host or cells: pooled human liver microsomes
T2 sequence (P05177 1-516): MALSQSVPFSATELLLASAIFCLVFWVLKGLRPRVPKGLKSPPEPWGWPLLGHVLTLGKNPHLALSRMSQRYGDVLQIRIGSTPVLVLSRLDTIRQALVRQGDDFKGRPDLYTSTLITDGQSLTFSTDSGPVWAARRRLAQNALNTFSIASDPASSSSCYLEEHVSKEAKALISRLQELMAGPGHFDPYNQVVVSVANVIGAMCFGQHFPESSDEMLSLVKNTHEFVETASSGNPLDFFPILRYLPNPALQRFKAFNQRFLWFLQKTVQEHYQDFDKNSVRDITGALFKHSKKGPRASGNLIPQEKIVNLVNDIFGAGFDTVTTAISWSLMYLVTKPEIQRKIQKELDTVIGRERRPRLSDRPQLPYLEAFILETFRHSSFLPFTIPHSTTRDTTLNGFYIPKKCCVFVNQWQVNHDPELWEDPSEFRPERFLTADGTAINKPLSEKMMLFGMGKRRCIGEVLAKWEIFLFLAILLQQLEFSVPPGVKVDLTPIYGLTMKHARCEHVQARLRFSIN
The data set is described as follows: CYP inhibition test (CYP1A2). Type of data set: in vitro ADME. The conditions noted are these: pooled human liver microsomes; 7-ethoxyresorufin O-deethylation. A digest of the protocol:
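Inhibition of CYP1A2 was measured in commercially available pooled human liver microsomes (0.2 mg protein/mL) using 7-ethoxyresorufin O-deethylation with 0.5 μmol/L ethoxyresorufin. Test compound at 1, 5, 10, 20 μmol/L in […] Hepes buffer was incubated at 37° C. after NADPH addition; methanol/acetonitrile=1/1 (v/v) stopped the reaction, and resorufin was read fluorescently.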
In general terms: Liver microsomes are vesicles of endoplasmic reticulum, rich in cytochrome P450 enzymes.

A short description of a further data set: Metabolic stability test. Type of data set: in vitro ADME. The conditions noted are these: human liver microsomes, 37° C., 30 minutes, NADPH. A digest of the protocol: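 Parent compound was measured by LC/MS/MS or SPE/MS after a methanol/acetonitrile quench and reported as % remaining, with the 0 min sample set to 100%. Incubations ran 30 min at 37 °C in pH 7.4 Tris buffer containing pooled human liver microsomes at 0.5 mg protein/mL and 1 mmol/L NADPH.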

Data set [1] deals with T3, human ether-a-go-go related gene (hERG) channel (Homo sapiens, UniProt Q12809).
T3 construct: expressed in transfected cells; host or cells: CHO cells
T3 sequence (Q12809 whole entry): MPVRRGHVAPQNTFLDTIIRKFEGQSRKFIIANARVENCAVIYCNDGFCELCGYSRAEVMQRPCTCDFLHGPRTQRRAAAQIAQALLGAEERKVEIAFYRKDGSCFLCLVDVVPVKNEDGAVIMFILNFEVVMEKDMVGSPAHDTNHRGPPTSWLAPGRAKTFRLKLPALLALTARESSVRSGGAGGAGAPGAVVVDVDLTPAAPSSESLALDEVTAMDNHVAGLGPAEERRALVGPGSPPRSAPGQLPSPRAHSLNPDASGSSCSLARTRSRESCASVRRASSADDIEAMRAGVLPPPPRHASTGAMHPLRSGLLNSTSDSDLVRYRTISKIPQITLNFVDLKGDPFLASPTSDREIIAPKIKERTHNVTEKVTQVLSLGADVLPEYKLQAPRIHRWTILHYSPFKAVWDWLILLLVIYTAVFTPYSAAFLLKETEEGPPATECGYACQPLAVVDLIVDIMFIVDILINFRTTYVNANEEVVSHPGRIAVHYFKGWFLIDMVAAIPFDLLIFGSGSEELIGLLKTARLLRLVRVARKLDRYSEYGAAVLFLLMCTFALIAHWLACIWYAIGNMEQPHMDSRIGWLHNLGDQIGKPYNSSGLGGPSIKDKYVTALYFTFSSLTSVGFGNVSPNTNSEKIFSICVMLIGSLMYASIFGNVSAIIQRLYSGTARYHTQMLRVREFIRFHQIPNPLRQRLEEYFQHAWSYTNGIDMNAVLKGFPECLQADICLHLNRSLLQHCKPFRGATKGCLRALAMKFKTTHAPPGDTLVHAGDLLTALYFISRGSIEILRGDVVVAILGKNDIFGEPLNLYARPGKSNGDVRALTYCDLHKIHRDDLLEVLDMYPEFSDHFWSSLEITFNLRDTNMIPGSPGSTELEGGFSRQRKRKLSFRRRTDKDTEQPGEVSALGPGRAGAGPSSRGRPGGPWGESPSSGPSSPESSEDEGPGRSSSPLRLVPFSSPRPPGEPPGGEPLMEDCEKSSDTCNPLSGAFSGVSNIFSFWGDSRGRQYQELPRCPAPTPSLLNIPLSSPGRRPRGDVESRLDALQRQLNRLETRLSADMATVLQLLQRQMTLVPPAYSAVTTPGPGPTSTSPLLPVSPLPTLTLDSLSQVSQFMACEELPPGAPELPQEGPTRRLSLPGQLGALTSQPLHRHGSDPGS
The data set is described as follows: hERG test. Type of data set: cell-based. As to conditions: % inhibition of IKr tail peak current at 3 uM; CHO cells expressing hERG. A digest of the protocol: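 IKr was recorded from hERG-expressing CHO cells by automated whole-cell patch clamp at a holding potential of −80 mV. A −50 mV leak step was followed by a 2 s depolarization to +20 mV and a 2 s repolarization to −50 mV, when current was measured.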
A general note: hERG is a cardiac potassium channel; its block is linked to QT prolongation.

In another data set the target is T4, CYP3A4 (Homo sapiens, UniProt P08684).
T4 construct: The commercially available pooled human liver microsomes are used as an enzyme resource; from tissue; host or cells: pooled human liver microsomes
T4 sequence (P08684 whole entry): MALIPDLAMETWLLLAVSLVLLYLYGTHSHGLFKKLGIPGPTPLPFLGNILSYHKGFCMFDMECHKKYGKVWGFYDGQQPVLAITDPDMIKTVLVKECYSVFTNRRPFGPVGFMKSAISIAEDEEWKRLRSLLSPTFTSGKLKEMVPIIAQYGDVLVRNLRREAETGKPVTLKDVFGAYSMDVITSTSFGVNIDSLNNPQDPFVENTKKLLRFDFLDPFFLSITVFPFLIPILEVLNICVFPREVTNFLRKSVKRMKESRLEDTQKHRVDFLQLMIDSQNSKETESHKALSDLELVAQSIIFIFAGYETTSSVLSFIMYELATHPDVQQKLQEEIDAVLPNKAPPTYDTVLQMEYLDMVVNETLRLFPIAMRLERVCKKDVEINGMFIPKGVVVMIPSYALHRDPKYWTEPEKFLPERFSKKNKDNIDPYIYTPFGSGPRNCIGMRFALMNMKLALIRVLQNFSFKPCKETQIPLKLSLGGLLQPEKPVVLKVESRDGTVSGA
The data set is described as follows: CYP inhibition test (CYP3A4). Type of data set: in vitro ADME. As to conditions: pooled human liver microsomes; terfenadine hydroxylation. A digest of the protocol: as §1

The mark [2] stands for this setting: JP 1st fluid, pH 1.2, simulated gastric fluid, kinetic from dmso stock, read-out: JP1.
[3] abbreviates: solubility in JP 2nd fluid B, 1% DMSO, *2: shaken for 1 hour at room temperature, read-out: JP2_μM.
[4] abbreviates: JP 2nd fluid A, pH 6.8, aqueous buffer, kinetic from dmso stock, read-out: JP2_μM.
Setting [5] is: JP 2nd fluid B, pH 6.8, aqueous buffer, kinetic from dmso stock, read-out: JP2_μM.

As a reminder, the pIC50 is the negative decadic logarithm of the IC50, by convention in mol/L. A high value points to a small IC50. Regarding `CC[C@H]1SC(N)=N[C@](C)(c2cc(NC(=O)c3cnc(OCF)cn3)ccc2F)[C@H]1F` [Compound I-66], the pIC50 is no more than 4.70 on CYP2C19, no more than 4.70 against CYP1A2 and no more than 5.00 on CYP3A4. Further, the solubility kinetic at 1 h in the data set “Solubility test” (setting [2]) is greater than 50 µM. In addition, the solubility kinetic at 16 h in “Solubility test” (setting [3]) is recorded as greater than 50 µM. Further, the remaining % in the data set “Metabolic stability test” is given as 67%. In addition, the “hERG_3 uM_%” value in data set [1] is listed as 27.1%.
In the case of `CC[C@H]1SC(N)=N[C@](C)(c2cc(NC(=O)c3ccc(F)cn3)ccc2F)[C@H]1F` [Compound I-70], the pIC50 against CYP2C19 was no more than 4.70; on CYP1A2, no more than 4.70; on CYP3A4, no more than 5.00. The solubility kinetic at 1 h in the data set “Solubility test” (setting [2]) is greater than 50 µM. For the same compound, in the data set “Solubility test” (setting [3]), the solubility kinetic at 16 h is greater than 50 µM. Further, the remaining % in the data set “Metabolic stability test” came to 74.3%. For the same compound, the “hERG_3 uM_%” value in data set [1] was 58.6%.
As to `COc1cnc(C(=O)Nc2ccc(F)c([C@@]3(C)N=C(N)O[C@H]([C@@H](C)F)[C@@H]3F)c2)cn1` [Compound I-71], the pIC50 against CYP2C19, against CYP1A2 and on CYP3A4 was no more than 4.70 each time. The solubility kinetic at 1 h in “Solubility test” (setting [2]) and in “Solubility test” (setting [4]) was greater than 50 µM throughout. The remaining % in the data set “Metabolic stability test” turned out to be 63%. The “hERG_3 uM_%” value in data set [1] is listed as 17%.
`C[C@]1(c2cc(NC(=O)c3ccc(C#N)cn3)ccc2F)N=C(N)O[C@H](C(F)(F)C2CC2)[C@@H]1F` [Compound I-81]: the pIC50 on CYP2C19 was no more than 4.70; on CYP1A2, no more than 4.70; against CYP3A4, no more than 5.00. Besides, the solubility kinetic at 1 h in “Solubility test” (setting [2]) is greater than 50 µM; in the data set “Solubility test” (setting [5]), 19.3 µM (≈ 8.91 µg/mL). For the same compound, in “Metabolic stability test”, the remaining % was determined as 101%. In data set [1], the “hERG_3 uM_%” value was 49.3%.
Turning to `COc1cnc(C(=O)Nc2ccc(F)c([C@@]3(C)N=C(N)O[C@H](C(F)F)[C@@H]3C)c2)cn1` [Compound I-86], the negative logarithm of the IC50 (pIC50) against CYP2C19, on CYP1A2 and at CYP3A4 was no more than 4.70 in each case. For the same compound, the solubility kinetic at 1 h in the data set “Solubility test” (setting [2]) and in the data set “Solubility test” (setting [4]) was greater than 50 µM throughout. Besides, in the data set “Metabolic stability test”, the remaining % is 67.5%. In data set [1], the “hERG_3 uM_%” value amounted to 23.8%.
On to `CO[C@H]1[C@@H](C)SC(N)=N[C@]1(C)c1cc(NC(=O)c2cnc(OCF)cn2)ccc1F` [Compound I-87], for which the pIC50 at CYP2C19, against CYP1A2 and against CYP3A4 was no more than 4.70 in each case. The solubility kinetic at 1 h in “Solubility test” (setting [2]) is greater than 50 µM. The solubility kinetic at 16 h in “Solubility test” (setting [3]) was greater than 50 µM. The remaining % in “Metabolic stability test” came out at 81%. Moreover, the “hERG_3 uM_%” value in data set [1] was determined as 13.8%.
Take `CO[C@H]1[C@@H](C)SC(N)=N[C@]1(C)c1cc(NC(=O)c2ccc(C#N)cn2)ccc1F` [Compound I-88]: the pIC50 on CYP2C19, against CYP1A2 and against CYP3A4 was no more than 4.70 in each case. Also, the solubility kinetic at 1 h in “Solubility test” (setting [2]) was greater than 50 µM. The solubility kinetic at 16 h in the data set “Solubility test” (setting [3]) is reported as greater than 50 µM. Moreover, the remaining % in “Metabolic stability test” worked out at 83.5%. In data set [1], the “hERG_3 uM_%” value worked out at 45.6%.
As to `CO[C@H]1[C@@H](C)SC(N)=N[C@]1(C)c1cc(NC(=O)c2ccc(F)cn2)ccc1F` [Compound I-89], the pIC50 against CYP2C19, against CYP1A2 and against CYP3A4 was no more than 4.70 each time. In addition, the solubility kinetic at 1 h in the data set “Solubility test” (setting [2]) is greater than 50 µM. Besides, the solubility kinetic at 16 h in “Solubility test” (setting [3]) is given as greater than 50 µM. Further, in the data set “Metabolic stability test”, the remaining % is 86.7%. In addition, the “hERG_3 uM_%” value in data set [1] turned out to be 42.7%.
As for `COc1cnc(C(=O)Nc2ccc(F)c([C@@]3(C)N=C(N)S[C@H](C)[C@@H]3OC)c2)cn1` [Compound I-90], the pIC50 at CYP2C19, on CYP1A2 and against CYP3A4 was no more than 4.70 in each case. Also, in the data set “Solubility test” (setting [2]), the solubility kinetic at 1 h is greater than 50 µM. In addition, the solubility kinetic at 16 h in “Solubility test” (setting [3]) was greater than 50 µM. The remaining % in “Metabolic stability test” is 83.1%. Further, the “hERG_3 uM_%” value in data set [1] came out at 11.4%.
Regarding `COC[C@H]1SC(N)=N[C@](C)(c2cc(NC(=O)c3cnc(OCF)cn3)ccc2F)[C@H]1F` [Compound I-91], the pIC50 against CYP2C19, at CYP1A2 and against CYP3A4 was no more than 4.70 throughout. For the same compound, the solubility kinetic at 1 h in “Solubility test” (setting [2]) was greater than 50 µM. In “Solubility test” (setting [3]), the solubility kinetic at 16 h is given as greater than 50 µM. For the same compound, in “Metabolic stability test”, the remaining % was found to be 74.4%. The “hERG_3 uM_%” value in data set [1] was 11.3%.
As for `COc1ccc(C(=O)Nc2ccc(F)c([C@@]3(C)N=C(N)S[C@H](C)[C@@H]3F)c2)nn1` [Compound I-108], the pIC50 at CYP2C19, on CYP1A2 and at CYP3A4 was no more than 4.70 each time. In addition, the solubility kinetic at 1 h in “Solubility test” (setting [2]) was greater than 50 µM. In “Solubility test” (setting [3]), the solubility kinetic at 16 h was greater than 50 µM. Moreover, in the data set “Metabolic stability test”, the remaining % was determined as 92.1%. For the same compound, in data set [1], the “hERG_3 uM_%” value is on record as 39.5%.
As for `C[C@]1(c2cc(NC(=O)c3cnc(OCF)cn3)ccc2F)N=C(N)S[C@H](CO)[C@@H]1F` [Compound I-109], the pIC50 at CYP2C19, against CYP1A2 and against CYP3A4 was no more than 4.70 each time. Also, the solubility kinetic at 1 h in “Solubility test” (setting [2]) is greater than 50 µM; in the data set “Solubility test” (setting [5]), 19 µM (≈ 8.39 µg/mL). Besides, in “Metabolic stability test”, the remaining % amounted to 86.8%. Further, in data set [1], the “hERG_3 uM_%” value is reported as 11%.
For the compound `C[C@H]1SC(N)=N[C@](C)(c2cc(NC(=O)c3ccc(F)cn3)ccc2F)[C@H]1F` [Compound I-116], the pIC50 against CYP2C19, against CYP1A2 and against CYP3A4 was no more than 4.70 in each case. For the same compound, the solubility kinetic at 16 h in “Solubility test” (JP 1st fluid, 25 °C, pH 1.2, simulated gastric fluid, kinetic from dmso stock, read-out: JP1) was greater than 50 µM; in the data set “Solubility test” (JP 2nd fluid A, 25 °C, pH 6.8, aqueous buffer, kinetic from dmso stock, read-out: JP2_μM), greater than 50 µM. Besides, in “Metabolic stability test”, the remaining % stood at 106%. For the same compound, the “hERG_3 uM_%” value in data set [1] worked out at 45.5%.
